A short description of this data set: Solubility of monomers and polymers in water and organic solvents. The class given is physicochemical. An excerpt:
The DM trgel monomers as prepared by the methods exemplified in Examples 1-5 above were converted to polymers by the anionic polymerization reaction as illustrated in Reaction Scheme A and the physical properties of homopolymers of differing monomers are presented in Table 1. With reference to Table 1 it should be noted that all of the resulting polymers have very low poly dispersity (Mw/Mn). […] All trgel monomers can be copolymerized randomly or in blocks. Copolymerization of water-soluble and water insoluble monomers results in polymers with controlled solubility in water, including gel forming polymers. Water-soluble polymers are particularly useful in biological applications such as surface protection from non-specific adsorption. The data also illustrates that the glass transition temperature (Tg) of polymers with alkyl substituents decreases as the alkyl chain length increases. […] The DM trgel polymers wherein R=2-methoxyethyl or R=2-(2-methoxyethoxyethyl) show lower critical solution temperature (LCST) behavior.

With `CCCCCCCCCCO[C@H]1[C@@H]2O[C@@H]2[C@@H]2OC[C@H]1O2` [DDM, 1,6:2,3-dianhydro-4-O-decyl-β-D-mannopyranose], the Solubility in hexane entry (hexane) is “soluble”. For `COCCOC1C2COC(O2)C2OC12` [MEDM, 1,6:2,3-dianhydro-4-O-(2-methoxyethyl)-β-D-mannopyranose], the Solubility in water entry is on record as “soluble”.

For the compound `COCCOCCOCCOC1C2COC(O2)C2OC12` [Monomer T, 1,6:2,3-dianhydro-4-O-(2-(2-(2-metoxyethoxy)ethoxy)ethyl)-β-D-mannopyranose], the Solubility in water result is on record as “soluble”.

Source of the values: patent publication US9149791B2, “Water-soluble carbohydrate polyethers” (TRGel, LLC, priority 2008, dated 2015).
